Source: patent US20160106743A1, “TOPOISOMERASE II POISONS AND METHODS OF MAKING AND USING SAME” (THE UNIVERSITY OF ROCHESTER, priority 2014, published 2016)
Entries after “also recorded” stand apart in the source; their conditions may differ.

Key:
Human Top2-α = target: T1, Human Top2-α (Homo sapiens, UniProt P11388); test: Human Top2-α decatenation of kinetoplastid DNA (gel electrophoresis, densitometry); format: biochemical; details: increasing concentrations of Compound 1, 37° C. for 15 min, FIG. 1
T1 construct: purchased Topogen, Inc; Port Orange Fla
Protocol: Human Top2-α decatenation of kinetoplastid DNA (kDNA) was visualized by gel electrophoresis. Human Top2-α (Topogen, Inc; Port Orange Fla.) was added to 0.2 μg of kDNA in the presence of 1% DMSO (vehicle control) without or with increasing concentrations of Compound 1. Reactions were incubated at 37° C. for 15 min and terminated by addition of an SDS buffer. Samples were resolved by 1% agarose 1×TAE gel electrophoresis and stained with ethidium bromide. Decatenated versus intact kDNA species were quantified by densitometry (FIG. 1).

[1] = system: Saccharomyces cerevisiae strain BY4741 overexpressing yeast TOP2; test: Yeast dilution growth on agar media, cells overexpressing TOP2; format: cell-based; details: Compound 1 10 μM in 0.1% DMSO, growth recorded after 48 h, FIG. 3
Protocol: (§1) Three-fold dilutions of Saccharomyces cerevisiae strain BY4741 overexpressing yeast TOP1, TOP2, or TOP3 from plasmid vectors were plated on agar media containing either 0.1% DMSO or Compound 1 (10 μM) in 0.1% DMSO (FIG. 3). Growth was recorded after 48 h. TOP1, TOP2, and TOP3 overexpressing cells grew at approximately the same rate as cells carrying an empty vector (top panel). […] However, Compound 1 was toxic to cells overexpressing TOP2. This phenomenon is characteristic of TOP2 poisons that stabilize toxic Top2cc adducts.

[2] = system: Saccharomyces cerevisiae strain BY4741 overexpressing yeast TOP1; test: Yeast dilution growth on agar media, cells overexpressing TOP1; format: cell-based; details: Compound 1 10 μM in 0.1% DMSO, growth recorded after 48 h, FIG. 3
Protocol: as §1

[3] = system: Saccharomyces cerevisiae strain BY4741 overexpressing yeast TOP3; test: Yeast dilution growth on agar media, cells overexpressing TOP3; format: cell-based; details: Compound 1 10 μM in 0.1% DMSO, growth recorded after 48 h, FIG. 3
Protocol: as §1

[4] = system: Saccharomyces cerevisiae strain BY4741 carrying an empty vector; test: Yeast dilution growth on agar media, cells carrying an empty vector; format: cell-based; details: Compound 1 10 μM in 0.1% DMSO, growth recorded after 48 h, FIG. 3
Protocol: as §1

[5] = system: yeast cells expressing native levels of Top2; test: Yeast culture growth rate, native levels of TOP2 (empty expression vector); format: cell-based; details: FIG. 4
Excerpt: (§2) Yeast cultures overexpressing native TOP2 (TOP2) or an empty expression vector (empty) were exposed to increasing concentrations of Compound 1 (FIG. 4). […] This is an unusual property for a TOP2 poison, most or all of which are lethal at high concentrations.

[6] = system: yeast cells overexpressing TOP2; test: Yeast culture growth rate, TOP2 overexpressed from a plasmid vector; format: cell-based; details: increasing concentrations of Compound 1, FIG. 4
Excerpt: as §2

purified yeast Top2 = target: T2, purified yeast Top2 (Saccharomyces cerevisiae, UniProt P06786); test: Plasmid DNA (pUC18) cleavage by purified yeast Top2 (double strand breaks, linear form); format: biochemical; details: 10 μM etoposide or 1, 10 or 100 μM Compound 1, 150 ng purified yeast Top2, FIG. 5
T2 sequence (P06786 1-1428): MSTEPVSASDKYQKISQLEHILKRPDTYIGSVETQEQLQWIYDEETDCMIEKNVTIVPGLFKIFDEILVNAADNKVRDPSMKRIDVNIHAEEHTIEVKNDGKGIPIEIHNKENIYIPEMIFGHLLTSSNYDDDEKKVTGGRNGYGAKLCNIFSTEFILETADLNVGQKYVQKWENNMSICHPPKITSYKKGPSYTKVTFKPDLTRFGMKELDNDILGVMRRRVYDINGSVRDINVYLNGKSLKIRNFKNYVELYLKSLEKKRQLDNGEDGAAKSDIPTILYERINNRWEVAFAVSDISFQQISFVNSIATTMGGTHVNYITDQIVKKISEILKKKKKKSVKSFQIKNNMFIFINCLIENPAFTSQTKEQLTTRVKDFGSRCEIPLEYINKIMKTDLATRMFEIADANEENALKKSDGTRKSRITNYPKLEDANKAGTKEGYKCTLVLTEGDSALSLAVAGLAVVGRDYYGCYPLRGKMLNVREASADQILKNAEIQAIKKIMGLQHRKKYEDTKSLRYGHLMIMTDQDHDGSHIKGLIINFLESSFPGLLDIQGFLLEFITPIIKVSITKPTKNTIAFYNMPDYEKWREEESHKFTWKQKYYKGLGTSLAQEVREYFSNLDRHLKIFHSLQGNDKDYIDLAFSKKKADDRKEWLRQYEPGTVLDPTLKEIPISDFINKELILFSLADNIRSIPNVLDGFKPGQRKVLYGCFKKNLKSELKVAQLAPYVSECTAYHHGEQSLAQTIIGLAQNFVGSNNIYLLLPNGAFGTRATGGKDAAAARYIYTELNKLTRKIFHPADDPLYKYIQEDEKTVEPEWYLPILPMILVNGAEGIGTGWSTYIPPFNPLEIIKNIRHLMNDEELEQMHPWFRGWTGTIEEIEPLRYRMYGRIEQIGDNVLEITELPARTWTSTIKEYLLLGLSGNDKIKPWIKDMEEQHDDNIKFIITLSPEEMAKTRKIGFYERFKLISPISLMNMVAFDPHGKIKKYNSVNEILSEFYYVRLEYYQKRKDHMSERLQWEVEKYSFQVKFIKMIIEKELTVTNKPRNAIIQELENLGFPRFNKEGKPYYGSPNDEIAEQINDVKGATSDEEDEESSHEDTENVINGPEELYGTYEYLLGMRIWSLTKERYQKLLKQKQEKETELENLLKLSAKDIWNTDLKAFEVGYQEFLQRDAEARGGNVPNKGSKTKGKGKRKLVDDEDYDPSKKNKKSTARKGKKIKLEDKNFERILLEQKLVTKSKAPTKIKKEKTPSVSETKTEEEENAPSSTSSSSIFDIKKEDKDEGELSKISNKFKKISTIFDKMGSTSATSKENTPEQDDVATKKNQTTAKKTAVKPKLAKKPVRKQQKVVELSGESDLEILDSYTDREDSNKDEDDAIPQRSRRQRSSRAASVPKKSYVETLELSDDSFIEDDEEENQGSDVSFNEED
Protocol: Supercoiled (sc) plasmid DNA (pUC18) was exposed to 10 μM etoposide or 1, 10 or 100 μM Compound 1 in the presence and absence of 150 ng of purified yeast Top2 as described (Nitiss et al. (2012) Curr Protoc. Pharmacol. Chapter 3: Unit 3.3) (FIG. 5). TOP2 poisons induce Top2cc adducts containing double strand breaks. Double strand DNA breaks convert supercoiled (sc) pUC18 to a linear (lin) form.

[7] = system: Human HT1080 fibrosarcoma cells; test: HT1080 cell viability, alone and combined with doxorubicin, vinblastine or etoposide; format: cell-based; design: viability of HT1080 cells, compound alone: dose or concentration left out as unconfirmed
Protocol: Human HT1080 fibrosarcoma cells were exposed for 48 hrs to DMSO (vehicle control), 0.5 μM doxorubicin, 0.5 nM vinblastine, and/or Compound 1 at the indicated concentrations (FIGS. 6A-6C, respectively). Viable cells remaining on the plates were quantified after 48 hrs. […] (FIG. 6B) Compound 1 enhances doxorubicin toxicity at concentrations as low as 2.5 μM. 10 μM Compound 1 enhances doxorubicin cytotoxicity several fold. […] The vinblastine results are inconsistent with Compound 1 acting by inhibition of multidrug resistance pumps, which, when inhibited, increase the toxicity of multiple cytotoxic drugs including vinblastine. […] Average values and standard deviation of the means are plotted. P-values determined by student t-test are shown for doxorubicin enhancement (B). DMSO (A) and doxorubicin (B) data were based on the average of 6 biological replicates. Vinblastine data (C) was based on three biological replicates.

[8] = system: Noncancer MJT cells (primary foreskin fibroblasts); test: MJT noncancer cell viability with and without doxorubicin; format: cell-based, human
puc118-based plasmid DNA = test: Topoisomerase I (Top1) DNA unwinding assay for intercalation; details: 15 min at 25° C., then 1 h with added Top1, FIG. 2
Excerpt: Samples were resolved by electrophoresis through 1% agarose 1×TAE gel and species *, **, and *** quantitated by densitometry (FIG. 2). Top1 alone (Lane 2) converts the DNA to a relaxed form (**) and some residual intermediate relaxed species (***).

T1 sequence (P11388 whole entry): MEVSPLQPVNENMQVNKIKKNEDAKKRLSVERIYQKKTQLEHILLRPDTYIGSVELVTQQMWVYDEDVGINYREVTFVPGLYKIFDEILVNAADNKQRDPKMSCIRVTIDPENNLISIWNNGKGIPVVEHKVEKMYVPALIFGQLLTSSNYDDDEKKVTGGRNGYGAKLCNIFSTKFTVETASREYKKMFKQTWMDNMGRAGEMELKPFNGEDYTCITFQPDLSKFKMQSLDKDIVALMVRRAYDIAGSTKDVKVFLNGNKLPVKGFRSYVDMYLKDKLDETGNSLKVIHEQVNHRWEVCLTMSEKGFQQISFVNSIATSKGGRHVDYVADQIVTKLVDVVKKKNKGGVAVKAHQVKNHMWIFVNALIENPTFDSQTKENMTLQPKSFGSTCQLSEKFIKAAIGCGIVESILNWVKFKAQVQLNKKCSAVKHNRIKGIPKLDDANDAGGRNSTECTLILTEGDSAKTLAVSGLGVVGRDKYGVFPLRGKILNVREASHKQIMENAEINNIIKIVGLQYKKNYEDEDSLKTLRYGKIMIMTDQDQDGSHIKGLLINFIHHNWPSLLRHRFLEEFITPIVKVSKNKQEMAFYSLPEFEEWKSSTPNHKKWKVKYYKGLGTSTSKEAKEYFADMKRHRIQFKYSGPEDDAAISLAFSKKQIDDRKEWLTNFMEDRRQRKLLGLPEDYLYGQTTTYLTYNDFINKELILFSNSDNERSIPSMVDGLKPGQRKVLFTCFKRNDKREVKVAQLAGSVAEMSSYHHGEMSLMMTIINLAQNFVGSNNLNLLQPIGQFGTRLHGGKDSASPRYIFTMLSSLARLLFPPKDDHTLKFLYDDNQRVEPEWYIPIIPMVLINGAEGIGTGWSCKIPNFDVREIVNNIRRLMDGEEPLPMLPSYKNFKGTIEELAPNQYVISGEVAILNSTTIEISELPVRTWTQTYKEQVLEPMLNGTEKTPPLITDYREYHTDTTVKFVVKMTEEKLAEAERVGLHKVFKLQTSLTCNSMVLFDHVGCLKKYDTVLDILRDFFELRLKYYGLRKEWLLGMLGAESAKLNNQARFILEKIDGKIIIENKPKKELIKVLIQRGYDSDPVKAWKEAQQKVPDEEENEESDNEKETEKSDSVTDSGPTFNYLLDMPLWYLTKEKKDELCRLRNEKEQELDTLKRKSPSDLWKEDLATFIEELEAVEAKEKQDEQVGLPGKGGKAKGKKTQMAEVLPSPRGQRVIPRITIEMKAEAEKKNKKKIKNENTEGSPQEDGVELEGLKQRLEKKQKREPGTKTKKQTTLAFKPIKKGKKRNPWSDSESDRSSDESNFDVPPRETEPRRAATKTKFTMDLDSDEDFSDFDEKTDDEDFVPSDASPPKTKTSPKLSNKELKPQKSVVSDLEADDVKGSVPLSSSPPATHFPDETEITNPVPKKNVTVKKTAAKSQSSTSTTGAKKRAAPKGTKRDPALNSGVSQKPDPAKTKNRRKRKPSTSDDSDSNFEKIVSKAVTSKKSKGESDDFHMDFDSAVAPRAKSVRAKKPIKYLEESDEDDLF

Compound | inhibition of decatenation of kinetoplastid DNA by human Top2-α (Human Top2-α) | growth of cells overexpressing TOP2 on agar [1] | growth of cells overexpressing TOP1 on agar [2] | growth of cells overexpressing TOP3 on agar [3] | growth of cells carrying an empty vector on agar [4] | growth in cells expressing native levels of Top2 at high concentrations ([5]; concentrations as high as 100 μM) | growth rate in cells expressing native levels of Top2 ([5]; concentrations below 10 μM) | growth in cells overexpressing TOP2 from a plasmid vector [6] | formation of the linear form of pUC18 (stable double strand breaks, Top2cc adducts) (purified yeast Top2) | enhancement of doxorubicin cytotoxicity ([7]; 10 μM Compound 1, 0.5 μM doxorubicin, 48 hrs, FIG. 6B) | viability of HT1080 cells, compound alone ([7]; 48 hrs, DMSO vehicle, FIG. 6A) | lowest concentration enhancing doxorubicin toxicity ([7]; 48 hrs, with 0.5 μM doxorubicin, FIG. 6B) [µM] | enhancement of HT1080 cell killing at multiple doxorubicin concentrations ([7]; various concentrations of doxorubicin and Compound 1, FIG. 6D) | enhancement of vinblastine toxicity ([7]; with 0.5 nM vinblastine, 48 hrs, FIG. 6C) | toxicity to MJT cells, compound alone ([8]; performed as in Example 6, FIG. 7) | enhancement of doxorubicin toxicity in MJT cells ([8]; various concentrations of doxorubicin with and without Compound 1, FIG. 7) | unwinding of plasmid DNA in presence of Top1 (intercalation) (puc118-based plasmid DNA)
c1ccc2nc3c(nc2c1)[nH]c1ccccc13 [Compound 1, 6H-indolo[2,3-b]quinoxaline] | inhibits human Top2-α at Micromolar Concentrations; also recorded: inhibited by increasing concentrations | toxic | no effect on the growth | no effect on the growth | no effect on the growth | cells continue to thrive | partial dose-dependent inhibition of growth rates | almost completely arrests growth | induced yeast Top2 to form the linear form of pUC18 | several fold | no effect on the viability | 2.5 | dose-dependent enhancement | does not enhance vinblastine toxicity | not itself toxic | nor does it enhance the toxicity of doxorubicin | do not unwind the DNA
COc1cccc2c1C(=O)c1c(O)c3c(c(O)c1C2=O)C[C@@](O)(C(=O)CO)C[C@@H]3O[C@H]1C[C@H](N)[C@H](O)[C@H](C)O1 [doxorubicin] |  |  |  |  |  |  |  |  |  |  |  |  |  |  |  |  | DNA is unwound
COc1cc([C@@H]2c3cc4c(cc3[C@@H](O[C@@H]3O[C@@H]5CO[C@@H](C)O[C@H]5[C@H](O)[C@H]3O)[C@H]3COC(=O)[C@H]23)OCO4)cc(OC)c1O [etoposide, reference compound] |  |  |  |  |  |  |  |  | induced yeast Top2 to form the linear form of pUC18 |  |  |  |  |  |  |  | do not unwind the DNA
